Read-outs that look alike come from different tables or passages of the source.
Key:
[1] = test system: human colon cancer cell line (HCT-116); assay: MTT cytotoxicity assay, HCT-116; format: cell-based
Procedure: (§1) The cytotoxicity of these compounds against three cancer cell lines was assayed using a conventional microtitre plate tetrazolium cytotoxicity assay. The human hepatoma cancer cell line (SMMC-7721), the colon cancer cell line (HCT-116), and the human breast cancer cell line (MCF-7) were provided by The Chinese Academy of Sciences cell bank. These cells were plated at a density of 1 × 10^5 cells/mL and incubated in a 96-well late for 24 h (37 °C, 5% CO2). The cells were then exposed to various concentrations of the compounds (0.0032, 0.016, 0.08, 0.4, 2, 10, and 50 µM/mL) continuously for 72 h. After this incubation, MTT solution (20 μL, 5 mg/mL) was added to each well and incubated for a further 4 h before removing the media. Formazan crystals were then dissolved by the addition of DMSO (100 μL per well). After mixing, the absorbance was read at 540 nm on a microplate reader. These assays were performed in three independent experiments. Wells containing no drugs, or CPT, were used as negative and positive controls, respectively. The IC50 values, defined as the concentration of compounds that produced a 50% decrease in surviving cells, were calculated using the Logit-method.

[2] = test system: human breast cancer cell line (MCF-7); assay: MTT cytotoxicity assay, MCF-7; format: cell-based
Procedure: as §1

H22 mouse liver tumours = assay: In vivo anti-tumour activity, H22 mouse liver tumour model; conditions: H22 KM mice, i.p. every two days
Procedure: Anti-tumour activity screens of CPT-bile acid analogues were conducted in KM mice with H22 mouse liver tumours. Briefly, female mice weighing 18–22 g were subcutaneously inoculated at the right flank with a tumour cell suspension (1 × 10^6 cells) in 0.2 mL of phosphate-buffered saline. The mice were divided into subgroups 24 h after inoculation. These groups (n = 4) were treated with either vehicle (control), CPT, or the CPT-bile acid analogues. Mice received i.p. treatments once every two days. When the tumour weight of the control group reached 1.0–1.5 g, the mice were killed and the TIR (%) calculated.

[3] = Body weight and surviving mice in the H22 in vivo study; design: species or system mouse; conditions: for Mice Number End of Study: 4 mice at start
Procedure: Anti-tumour activity screens of CPT-bile acid analogues were conducted in KM mice with H22 mouse liver tumours. […] These groups (n = 4) were treated with either vehicle (control), CPT, or the CPT-bile acid analogues. Mice received i.p. treatments once every two days.

[4] = test system: human hepatoma cell line (SMMC-7721); assay: MTT cytotoxicity assay, SMMC-7721; format: cell-based
Procedure: as §1

[5] = Lactone stability in rat blood serum (HPLC); format: in vitro ADME
Procedure: Compounds E2, F2, G2, and H2 were dissolved in DMSO (100 μL, 4 mM/L) and incubated in rat blood serum (4 mL) at 37 °C. Aliquots were taken at different time points (0, 2, 4, 6, 8, 10, 12, and 24 h) and examined by HPLC, using CPT as the reference.

SMMC-7721 cells = assay: Fluorescence microscopy of compound entry into SMMC-7721 cells; format: cell-based, human; conditions: 10 or 20 µM, up to 4 h at 37 °C, ultraviolet light
Procedure: (§2) Compound E2 (final concentrations of 10 µM/mL and […]) and CPT (final concentrations of 10 µM/mL and 20 µM/mL) were directly added to the cell culture medium and incubated for 1 h, 2 h or 4 h at 37 °C. The cells were then gently washed three times with physiological saline. Cellular fluorescence was imaged using a fluorescence microscope (Zeiss inverted Microscope Axiovert 200 equipped with a NIKON DS-FiL (Sendai, Japan). The images were taken using ultraviolet light.

MCF-7 cells = assay: Fluorescence microscopy of compound entry into MCF-7 cells; format: cell-based, human; conditions: data not shown
Procedure: as §2

[6] = in this project
Procedure: Preliminary anti-tumour activity studies of E2, G4, and H2 were evaluated in vivo in a mouse liver adenocarcinoma model (H22) and compared with CPT.

[7] = HCT-116, 72 h, read-out: In Vitro Cytotoxicity (IC50, µM) HCT-116
[8] = MCF7, 72 h, read-out: In Vitro Cytotoxicity (IC50, µM) MCF-7
[9] = SMMC-7721, 72 h, read-out: In Vitro Cytotoxicity (IC50, µM) SMMC7721

Structure (SMILES): CC[C@@]1(O)C(=O)OCc2c1cc1n(c2=O)Cc2cc3cc(OCCCOC(=O)CCC(C)C4CCC5C6CCC7C[C@H](O)CCC7C6C[C@H](O)C45)ccc3nc2-1 (stereo partly drawn) [Compound H2, 10-O-(3-O-(3′α,12′α-Dihydroxy-24′-carbonyl-5′β-cholan)-propyl)-20(S)-camptothecin]
- IC50 [1, 7]: 0.8 µM
- IC50 [2, 8]: 2.5 µM
- TIR (%) (H22 mouse liver tumours; dose 18.82 × 3 µmol/kg): 13.27%
- TIR (%) (H22 mouse liver tumours; dose 37.64 × 3 µmol/kg): 57.99%
- TIR (%) (H22 mouse liver tumours; dose 56.46 × 3 µmol/kg): 61.19%
- Mice Number End of Study ([3]; dose 18.82 × 3 µmol/kg i.p.): 3
- Body Weight (g) End of Study ([3]; dose 18.82 × 3 µmol/kg i.p., start of study 22.1 g): 21.1 g
- Mice Number End of Study ([3]; dose 37.64 × 3 µmol/kg i.p.): 4
- Body Weight (g) End of Study ([3]; dose 37.64 × 3 µmol/kg i.p., start of study 21.9 g): 18.2 g
- Mice Number End of Study ([3]; dose 56.46 × 3 µmol/kg i.p.): 3
- Body Weight (g) End of Study ([3]; dose 56.46 × 3 µmol/kg i.p., start of study 21.6 g): 20.0 g
- IC50 [4, 9]: 2.74 µM
- half-life at 97.6 µM ([5]; rat, serum): > 24 h

Structure (SMILES): CC[C@@]1(OC(=O)CNC(=O)CCC(C)C2CCC3C4CCC5C[C@H](O)CC[C@]5(C)C4C[C@H](O)[C@]23C)C(=O)OCc2c1cc1n(c2=O)Cc2cc3ccccc3nc2-1 (stereo partly drawn) [Compound E2, Camptothecin-20 (S)-O-glycine Ester-[N-(3′α,12′α-dihydroxy-24′-carbonyl-5′β-cholane)]]
- IC50 [1, 7]: 15.8 µM
- IC50 [2, 8]: 150 µM
- melting point: 203 to 204 °C
- TIR (%) (H22 mouse liver tumours; dose 19.23 × 3 µmol/kg): 4.09%
- TIR (%) (H22 mouse liver tumours; dose 38.45 × 3 µmol/kg): 16.10%
- TIR (%) (H22 mouse liver tumours; dose 57.69 × 3 µmol/kg): 40.13%
- Mice Number End of Study ([3]; dose 19.23 × 3 µmol/kg i.p.): 4
- Body Weight (g) End of Study ([3]; dose 19.23 × 3 µmol/kg i.p., start of study 19.9 g): 21.9 g
- Mice Number End of Study ([3]; dose 38.45 × 3 µmol/kg i.p.): 4
- Body Weight (g) End of Study ([3]; dose 38.45 × 3 µmol/kg i.p., start of study 20.5 g): 21.5 g
- Mice Number End of Study ([3]; dose 57.69 × 3 µmol/kg i.p.): 4
- Body Weight (g) End of Study ([3]; dose 57.69 × 3 µmol/kg i.p., start of study 20.5 g): 20.6 g
- IC50 [4, 9]: 0.36 µM
- Cellular fluorescence (accumulation in cells) (SMMC-7721 cells): accumulated in the SMMC-7721 cells
- Cellular fluorescence (accumulation in cells) (MCF-7 cells): no fluorescent signal
- half-life at 97.6 µM ([5]; rat, serum): > 24 h

Structure (SMILES): CC[C@@]1(O)C(=O)OCc2c1cc1n(c2=O)Cc2cc3ccccc3nc2-1 [CPT, Camptothecin]
- IC50 ([1]; MTT, 72 h exposure, HCT-116, read-out: In Vitro Cytotoxicity (IC50, µM) HCT-116): 0.52 µM
- IC50 ([2]; MCF7, MTT, 72 h exposure, MCF-7, read-out: In Vitro Cytotoxicity (IC50, µM) MCF-7): 0.57 µM
- TIR (%) (H22 mouse liver tumours; dose 27.45 × 3 µmol/kg): 67.26%
- Mice Number End of Study ([3]; dose 27.45 × 3 µmol/kg i.p.): 3
- Body Weight (g) End of Study ([3]; dose 27.45 × 3 µmol/kg i.p., start of study 21.4 g): 18.6 g
- IC50 ([4]; MTT, 72 h exposure, SMMC-7721, read-out: In Vitro Cytotoxicity (IC50, µM) SMMC7721): 0.56 µM
- maximum dose which the mouse can tolerate [6]: 27.45 µmol/kg
- Cellular fluorescence (accumulation in cells) (SMMC-7721 cells): no distinct fluorescence
- Cellular fluorescence (accumulation in cells) (MCF-7 cells): no fluorescent signal
- half-life at 97.6 µM ([5]; rat blood serum, 37 °C, HPLC, up to 24 h, read-out: Half-Life (converted)): 2.3 h
